In this assay the target is T1, GST-JAK2(808-1132) (Homo sapiens, UniProt O60674).
T1 construct: GST-JAK2(808-1132) is purchased from Invitrogen; purchased Invitrogen (Carlsbad, USA) #4288
Nature of the assay: EPK JAK/TYK-kinase family profiling assay (Caliper mobility shift), JAK2. Format: biochemical. The settings on record: Caliper mobility shift assay of Example 187, 20 μM ATP, read-out: IC50 with Test in present Example. The text has this: All four kinases of the JAK/TYK-kinase family are used as purified recombinant GST-fusion proteins, containing the active kinase domains. GST-JAK1(866-1154), GST-JAK3(811-1124), and GST-TYK2(888-1187) are expressed and purified by affinity chromatography. GST-JAK2(808-1132) is purchased from Invitrogen (Carlsbad, USA, #4288).
The kinase assays are based on the Caliper mobility shift assay using the LabChip 3000 systems. This technology is similar to capillary electrophoresis and uses charge driven separation of substrate and product in a microfluidic chip.
All kinase reactions are performed in 384 well microtiter plates in a total reaction volume of 18 μl. The assay plates are prepared with 0.1 μl per well of test compound in the appropriate test concentration, as described under the section “preparation of compound dilutions”. The reactions are started by combining 9 μl of substrate mix (consisting of peptide and ATP) with 9 μl of kinase dilution. The reactions are incubated for 60 minutes at 30° C. and stopped by adding 70 μl of stop buffer (100 mM Hepes, 5% DMSO, 0.1% Coating reagent, 10 mM EDTA, 0.015% Brij 35).
Fluorescently labeled synthetic peptides are used as substrates in all reactions. […] Specific assay conditions are described in Table 1:
The terminated reactions are transferred to a Caliper LabChip 3000 reader (Caliper Life Sciences, Mountain View, Calif., USA) and the turnover of each reaction is measured by determining the substrate/product ratio.
Test compounds are dissolved in DMSO (10 mM) and transferred into 1.4 mL flat bottom or V-shaped Matrix tubes carrying a unique 2D matrix chip by individual compound hubs. The numbers of these chips are distinctively linked to the individual compound identification numbers. The stock solutions are stored at −20° C. if not used immediately. For the test procedure the vials are defrosted and identified by a scanner whereby a working sheet is generated that guides the subsequent working steps.
Compound dilutions are made in 96 well plates. This format enabled the assay of maximally 40 individual test compounds at 8 concentrations (single points) including 4 reference compounds. The dilution protocol includes the production of pre-dilution plates, master plates and assay plates:
Pre-dilution plates: 96 polypropylene well plates are used as pre-dilution plates. A total of 4 pre-dilution plates are prepared including 10 test compounds each on the plate positions A1-A10, one standard compound at A11 and one DMSO control at A12. All dilution steps are done on a Hamilton STAR robot (Hamilton, Co., Reno, Nev., USA).
Master plates: 100 μL of individual compound dilutions including standard compound and controls of the 4 “pre-dilution plates” are transferred into a 384 “master plate” including the following concentrations 1,820, […], 182, 54.6, 18.2, 5.46, 1.82 and 0.546 μM, respectively in 90% of DMSO.
Assay plates: Identical assay plates are then prepared by pipetting 100 nL each of compound dilutions of the master plates into 384-well “assay plates”. In the following the compounds are mixed with 9 μL of assays components plus 9 μL enzyme corresponding to a 1:181 dilution steps enabling the final concentration of 10, 3.0, 1.0, 0.3, 0.1, 0.03, 0.01 and 0.003 μM, respectively. The preparation of the master plates are handled by the Matrix PlateMate Plus robot (Thermo Fisher Scientific, Handforth, Cheshire, United Kingdom) and replication of assay plates by the HummingBird robot (Genomic Solutions, Inc., Ann Arbor, Mich., USA).

Structures are written as SMILES. Some results are limits rather than exact numbers.

T1 sequence (O60674 808-1132): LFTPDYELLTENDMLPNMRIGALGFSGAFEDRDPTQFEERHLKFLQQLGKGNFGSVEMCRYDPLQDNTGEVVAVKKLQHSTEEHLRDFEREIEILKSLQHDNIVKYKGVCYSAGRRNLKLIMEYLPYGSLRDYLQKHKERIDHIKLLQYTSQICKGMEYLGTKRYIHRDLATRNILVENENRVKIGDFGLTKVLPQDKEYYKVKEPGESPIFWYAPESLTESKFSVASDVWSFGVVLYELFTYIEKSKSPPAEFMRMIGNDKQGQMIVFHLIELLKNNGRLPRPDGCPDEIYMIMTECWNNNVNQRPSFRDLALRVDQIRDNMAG

On to `Cc1cc(Nc2nc3cccc(-c4ccc(C(=O)N5CCOCC5)c(F)c4)c3o2)ccc1N1CCN(C2CC2)CC1` [Example 156, (4-{2-[4-(4-Cyclopropyl-piperazin-1-yl)-3-methyl-phenylamino]-benzooxazol-7-yl}-2-fluoro-phenyl)-morpholin-4-yl-methanone], for which the IC50 was found to be 20.5 nM.

With `CCN1CCN(c2ccc(Nc3nc4cccc(-c5ccc(S(N)(=O)=O)cc5)c4o3)cc2C)CC1` [Example 112, 4-{2-[4-(4-Ethyl-piperazin-1-yl)-3-methyl-phenylamino]-benzooxazol-7-yl}-benzenesulfonamide], the IC50 turned out to be 17.5 nM.

Take `O=C(c1ccc(-c2cccc3nc(Nc4ccc(N5CCNCC5)cc4)oc23)cc1F)N1CCOCC1` [Example 91, {2-Fluoro-4-[2-(4-piperazin-1-yl-phenylamino)-benzooxazol-7-yl]-phenyl}-morpholin-4-yl-methanone]: the IC50 came out at 64 nM.

As to `CN1CCN(c2ccc(Nc3nc4cccc(-c5ccc(C(=O)N6CCOCC6)c(F)c5)c4o3)cc2C#N)CC1` [Example 90, 5-{7-[3-Fluoro-4-(morpholine-4-caronyl)-phenyl]-benzooxazol-2-ylamino}-2-(4-methyl-piperazin-1-yl)-benzonitrile], the IC50 stood at 56.5 nM.

For `CN1CCN(c2cccc(Nc3nc4cccc(-c5cc(F)c(CN6CCS(=O)(=O)CC6)c(F)c5)c4o3)c2)CC1` [Example 128, {7-[4-(1,1-Dioxo-1lambda*6*-thiomorpholin-4-ylmethyl)-3,5-difluoro-phenyl]-benzooxazol-2-yl}-[3-(4-methyl-piperazin-1-yl)-phenyl]-amine], the IC50 was 19 nM.

Regarding `Cc1cc(Nc2nc3cccc(-c4cc(F)c(CN5CCS(=O)(=O)CC5)c(F)c4)c3o2)ccc1N1CCOCC1` [Example 164, {7-[4-(1,1-Dioxo-1lambda*6*-thiomorpholin-4-ylmethyl)-3,5-difluoro-phenyl]-benzooxazol-2-yl}-(3-methyl-4-morpholin-4-yl-phenyl)-amine], the IC50 came to 7.25 nM.

As for `CCN1CCN(c2ccc(Nc3nc4cccc(-c5cc(F)c(C(=O)N6CCOCC6)c(F)c5)c4o3)cc2C)CC1` [Example 109, (4-{2-[4-(4-Ethyl-piperazin-1-yl)-3-methyl-phenylamino]-benzooxazol-7-yl}-2,6-difluoro-phenyl)-morpholin-4-yl-methanone], the IC50 was 11 nM.

In the case of `CCN1CCN(c2ccc(Nc3nc4cccc(-c5ccc(CN6CCS(=O)(=O)CC6)c(F)c5)c4o3)cc2C)CC1` [Example 88, {7-[4-(1,1-Dioxo-1lambda*6*-thiomorpholin-4-ylmethyl)-3-fluoro-phenyl]-benzooxazol-2-yl}-[4-(4-ethyl-piperazin-1-yl)-3-methyl-phenyl]-amine], the IC50 is < 3 nM.

Turning to `Cc1cc(Nc2nc3cccc(-c4ccc(C(=O)N5CCS(=O)(=O)CC5)cc4)c3o2)ccc1CN1CCOCC1` [Example 165, (1,1-Dioxo-1lambda*6*-thiomorpholin-4-yl)-{4-[2-(3-methyl-4-morpholin-4-ylmethyl-phenylamino)-benzooxazol-7-yl]-phenyl}-methanone], the IC50 came out at 11 nM.

For `Cc1cc(Nc2nc3cccc(-c4cc(F)c(CN5CCOCC5)c(F)c4)c3o2)ccc1C(=O)N1CCCC1` [Example 99, {4-[7-(3,5-Difluoro-4-morpholin-4-ylmethyl-phenyl)-benzooxazol-2-ylamino]-2-methyl-phenyl}-pyrrolidin-1-yl-methanone], the half-maximal inhibitory concentration (IC50) was 19.2 nM.

Consider `O=C1Cc2cc(Nc3nc4cccc(-c5cc(F)c(CN6CCOCC6)c(F)c5)c4o3)ccc2N1` [Example 134, 5-[7-(3,5-Difluoro-4-morpholin-4-ylmethyl-phenyl)-benzooxazol-2-ylamino]-1,3-dihydro-indol-2-one], for which the IC50 turned out to be 98 nM.

As for `Cc1cc(Nc2nc3cccc(-c4ccc(C(=O)N5CCOCC5)c(F)c4)c3o2)ccc1CN1CCOCC1` [Example 131, {2-Fluoro-4-[2-(3-methyl-4-morpholin-4-ylmethyl-phenylamino)-benzooxazol-7-yl]-phenyl}-morpholin-4-yl-methanone], the IC50 was 19.5 nM.

With `O=S1(=O)CCN(Cc2c(F)cc(-c3cccc4nc(Nc5ccc(N6CCN(C7CC7)CC6)cc5)oc34)cc2F)CC1` [Example 114, [4-(4-Cyclopropyl-piperazin-1-yl)-phenyl]-{7-[4-(1,1-dioxo-1lambda*6*-thiomorpholin-4-ylmethyl)-3,5-difluoro-phenyl]-benzooxazol-2-yl}-amine], the IC50 stood at 14.1 nM.

`Cc1cc(Nc2nc3cccc(-c4ccc(C(=O)N5CCOCC5)cc4)c3o2)ccc1C(=O)N(C)C` [Example 69, 2,N,N-Trimethyl-4-{7-[4-(morpholine-4-carbonyl)-phenyl]-benzooxazol-2-ylamino}-benzamide]: the IC50 stood at 7.9 nM.

For `CCN1CCN(c2ccc(Nc3nc4cccc(-c5ccc(C(C)(C)C(=O)N6CCOCC6)cc5)c4o3)cc2C)CC1` [Example 111, 2-(4-{2-[4-(4-Ethyl-piperazin-1-yl)-3-methyl-phenylamino]-benzooxazol-7-yl}-phenyl)-2-methyl-1-morpholin-4-yl-propan-1-one], the IC50 amounted to 16.5 nM.

For `Cc1cc(Nc2nc3cccc(-c4cc(F)c(CN5CCOCC5)c(F)c4)c3o2)ccc1N1CCN(C2CC2)CC1` [Example 160, [4-(4-Cyclopropyl-piperazin-1-yl)-3-methyl-phenyl]-[7-(3,5-difluoro-4-morpholin-4-ylmethyl-phenyl)-benzooxazol-2-yl]-amine], the IC50 turned out to be 18 nM.

`Cc1cc(Nc2nc3cccc(-c4cc(F)c(CN5CCS(=O)(=O)CC5)c(F)c4)c3o2)ccc1N1CCN(CCN(C)C)CC1` [Example 107, {4-[4-(2-Dimethylamino-ethyl)-piperazin-1-yl]-3-methyl-phenyl}-{7-[4-(1,1-dioxo-1lambda*6*-thiomorpholin-4-ylmethyl)-3,5-difluoro-phenyl]-benzooxazol-2-yl}-amine]: the IC50 is 4.3 nM.

For `Cc1cc(Nc2nc3cccc(-c4cc(F)c(CN5CCS(=O)(=O)CC5)c(F)c4)c3o2)ccc1N1CCN(C2CC2)CC1` [Example 154, [4-(4-Cyclopropyl-piperazin-1-yl)-3-methyl-phenyl]-{7-[4-(1,1-dioxo-1lambda*6*-thiomorpholin-4-ylmethyl)-3,5-difluoro-phenyl]-benzooxazol-2-yl}-amine], the IC50 came out at 3.3 nM.

On to `Cc1cc(Nc2nc3cccc(-c4ccc(S(C)(=O)=O)cc4)c3o2)ccc1N1CCN(C(C)C)CC1` [Example 105, [4-(4-Isopropyl-piperazin-1-yl)-3-methyl-phenyl]-[7-(4-methanesulfonyl-phenyl)-benzooxazol-2-yl]-amine], for which the IC50 turned out to be 20 nM.

As to `CCN(CC)C(=O)c1ccc(Nc2nc3cccc(-c4cc(F)c(CN5CCOCC5)c(F)c4)c3o2)cc1C` [Example 103, 4-[7-(3,5-Difluoro-4-morpholin-4-ylmethyl-phenyl)-benzooxazol-2-ylamino]-N,N-diethyl-2-methyl-benzamide], the IC50 came out at 14 nM.

Take `CCN1CCN(C(=O)c2ccc(Nc3nc4cccc(-c5cc(F)c(CN6CCOCC6)c(F)c5)c4o3)cc2C)CC1` [Example 104, {4-[7-(3,5-Difluoro-4-morpholin-4-ylmethyl-phenyl)-benzooxazol-2-ylamino]-2-methyl-phenyl}-(4-ethyl-piperazin-1-yl)-methanone]: the IC50 worked out at 15 nM.

For the compound `Cc1cc(Nc2nc3cccc(-c4cc(F)c(CN5CCS(=O)(=O)CC5)c(F)c4)c3o2)ccc1C(=O)N1CCCC1` [Example 96, (4-{7-[4-(1,1-Dioxo-1lambda*6*-thiomorpholin-4-ylmethyl)-3,5-difluoro-phenyl]-benzooxazol-2-ylamino}-2-methyl-phenyl)-pyrrolidin-1-yl-methanone], the IC50 is 4.35 nM.

What is called IC50 is the concentration at which inhibition is half-maximal.
